pEC50, pIC50: −log10 of the molar value. ≈ marks a conversion by molar mass, not a printed value. Each block holds one compound with its values, some of them ahead of it.
Legend:
K562 [1] = assay: Growth inhibition of human K562 cells assessed as reduction in cell viability measured after 3 days by CCK-8 assay; format: functional; conditions: K562, 72 h, time 3 day
[2] = test system: KATO III stomach cancer cell line; assay: Growth inhibition of human KATO III stomach cancer cell line assessed as reduction in cell viability measured after 3 days by CCK-8 assay; format: functional; conditions: 72 h, time 3 day
HepG2 [3] = assay: Growth inhibition of human HepG2 cells assessed as reduction in cell viability measured after 3 days by CCK-8 assay; format: functional; conditions: HepG2, 72 h, time 3 day
SNU1 = assay: Growth inhibition of human SNU1 cells assessed as reduction in cell viability measured after 3 days by CCK-8 assay; format: functional; conditions: SNU1, 72 h, time 3 day
OVCAR-8 = assay: Growth inhibition of human OVCAR-8 cells assessed as reduction in cell viability measured after 3 days by CCK-8 assay; format: functional; conditions: OVCAR-8, 72 h, time 3 day
PANC-1 = assay: Growth inhibition of human PANC-1 cells assessed as reduction in cell viability measured after 3 days by CCK-8 assay; format: functional; conditions: PANC-1, 72 h, time 3 day
AGS = assay: Growth inhibition of human AGS cells assessed as reduction in cell viability measured after 3 days by CCK-8 assay; format: functional; conditions: 72 h, time 3 day
SK-OV-3 = assay: Growth inhibition of human SK-OV-3 cells assessed as reduction in cell viability measured after 3 days by CCK-8 assay; format: functional; conditions: SK-OV-3, 72 h, time 3 day
SN12C = assay: Growth inhibition of human SN12C cells assessed as reduction in cell viability measured after 3 days by CCK-8 assay; format: functional; conditions: 72 h, time 3 day
HeLa [4] = assay: Growth inhibition of human HeLa cells assessed as reduction in cell viability measured after 3 days by CCK-8 assay; format: functional; conditions: 72 h, time 3 day
WiDr = assay: Growth inhibition of human WiDr cells assessed as reduction in cell viability measured after 3 days by CCK-8 assay; format: functional; conditions: 72 h, time 3 day
BXPC-3 = assay: Growth inhibition of human BXPC-3 cells assessed as reduction in cell viability measured after 3 days by CCK-8 assay; format: functional; conditions: BXPC-3, 72 h, time 3 day
T-24 = assay: Growth inhibition of human T24 cells assessed as reduction in cell viability measured after 3 days by CCK-8 assay; format: functional; conditions: T-24, 72 h, time 3 day
HeLa [5] = assay: Antiproliferative activity against human HeLa cells assessed as inhibition of cell growth incubated for 72 hrs by MTT assay; format: functional, cell-based
MCF7 [6] = assay: Cytotoxicity against human MCF7 cells assessed as cell growth inhibition after 48 hrs by MTT assay; format: functional, cell-based; conditions: MCF7, 48 h
MCF7 [7] = assay: Cytotoxicity against human MCF7 cells assessed as reduction in cell growth by MTT assay; format: functional, cell-based
DLD-1 = assay: Anticancer activity against human DLD-1 cells assessed as reduction in cell viability; format: functional, cell-based
HeLa [8] = assay: Antiproliferative activity against human HeLa cells assessed as reduction in cell viability; format: functional, cell-based
HeLa [9] = assay: Cytotoxicity against human HeLa cells assessed as cell growth inhibition incubated for 72 hrs by MTT colorimetric assay; format: functional, cell-based
MDA-MB-231 [10] = assay: Cytotoxicity against human MDA-MB-231 cells assessed as cell growth inhibition by SRB assay; format: functional, cell-based
MDA-MB-231 [11] = assay: Cytotoxicity against human MDA-MB-231 cells assessed as cell growth inhibition incubated for 72 hrs by MTT colorimetric assay; format: functional, cell-based; conditions: MDA-MB-231, 72 h
K562 [12] = assay: Cytotoxicity against human K562 cells assessed as cell growth inhibition incubated for 72 hrs by MTT colorimetric assay; format: functional, cell-based; conditions: K562, 72 h
A549 [13] = assay: Cytotoxicity against human A549 cells assessed as cell growth inhibition incubated for 72 hrs by MTT colorimetric assay; format: functional, cell-based; conditions: A549, 72 h
[14] = molecular target: Cyclin-dependent kinase inhibitor 1 (p21) (human) (UniProt P38936); assay: Upregulation of p21 gene expression in human HeLa cells assessed fold increase by RT-PCR analysis
A549 [15] = assay: Cytotoxicity against human A549 cells assessed as reduction in cell growth by MTT assay; format: functional, cell-based
MDA-MB-231 [16] = assay: Anticancer activity against human MDA-MB-231 cells assessed as reduction in cell viability measured after 72 hrs by MTT assay; format: functional, cell-based; conditions: MDA-MB-231, 72 h
HepG2 [17] = assay: Anticancer activity against human HepG2 cells assessed as reduction in cell viability; format: functional, cell-based
[18] = Cytotoxicity against green monkey COS-7 cells; format: toxicity, cell-based; conditions: green monkey (Chlorocebus aethiops)
HeLa [19] = assay: Antitumor activity against human HeLa cells assessed as inhibition of cell growth by MTT assay; format: functional, cell-based
HeLa [20] = assay: Cytotoxicity against human HeLa cells assessed as reduction in cell growth by MTT assay; format: functional, cell-based
HeLa [21] = assay: Cytotoxicity against human HeLa cells assessed as reduction in cell growth measured after 48 hrs by MTT assay; format: functional, cell-based
A549 [22] = assay: Cytotoxicity against human A549 cells assessed as reduction in cell growth measured after 48 hrs by MTT assay; format: functional, cell-based; conditions: A549, 48 h
MCF7 [23] = assay: Cytotoxicity against human MCF7 cells assessed as reduction in cell growth measured after 48 hrs by MTT assay; format: functional, cell-based; conditions: MCF7, 48 h
HeLa [24] = assay: Cytotoxicity against human HeLa cells assessed as cell growth inhibition; format: functional, cell-based
[25] = Anticancer activity against human SK-MEL-128 cells assessed as cell growth inhibition; format: functional, cell-based
DU-145 = assay: Anticancer activity against human DU-145 cells assessed as cell growth inhibition; format: functional, cell-based
A549 [26] = assay: Antiproliferative activity against human A549 cells assessed as reduction in cell viability by MTS assay; format: functional, cell-based
BT-20 = assay: Anticancer activity against human BT-20 cells assessed as cell growth inhibition; format: functional, cell-based

GI50 (K562 [1]): < 410 nM | GI50 [2]: < 410 nM | GI50 (HepG2 [3]): < 410 nM | GI50 (SNU1): < 410 nM | GI50 (OVCAR-8): < 410 nM | GI50 (PANC-1): < 410 nM | GI50 (AGS): < 410 nM | GI50 (SK-OV-3): < 410 nM | GI50 (HeLa [4]): < 410 nM | GI50 (BXPC-3): < 410 nM
Compound: CCN(CC)c1ccc2cc(-c3nc4ccccc4n3C)c(=O)oc2c1
GI50 (SN12C): < 410 nM | GI50 (WiDr): < 410 nM | GI50 (T-24): < 410 nM

pIC50 (HeLa [5]): 6.68
Compound: Cc1nn(-c2ccccc2)c(=O)n1-n1c(-c2cc3ccccc3oc2=O)cs/c1=N\c1ccc(Cl)cc1

pEC50 (DLD-1): 5.24
Compound: COc1ccc(/C(C)=N/Nc2ncc(C(=O)c3cc4ccccc4oc3=O)s2)cc1

pIC50 (HeLa [8]): 8.05
Compound: CCOC(=O)c1sc(N/N=C(\C)c2cc3cc(Br)ccc3oc2=O)nc1C

pIC50 (MDA-MB-231 [16]): 4.85
Compound: COC(=O)c1cc2cc(-c3nc4cc(C)ccn4c3NC(C)(C)C)cc(C(C)C)c2oc1=O

pEC50 (HepG2 [17]): 5.43
Compound: C/C(=N\Nc1ncc(C(=O)c2cc3ccccc3oc2=O)s1)c1ccc(C)cc1

pIC50 (HeLa [19]): 5.89
Compound: O=c1oc2ccccc2cc1-c1csc(N/N=C/c2c3ccccc3c(Cl)c3ccccc23)n1
pIC50 [18]: 5.78

IC50 (DU-145): 3.7 µg/mL (≈ 6.88 µM)
Compound: Nn1c(Cc2ccc(Cl)c(Cl)c2)nn(CC(=O)NNC(=O)c2cc3cc(Cl)ccc3oc2=O)c1=O
IC50 [25]: 12.3 µg/mL (≈ 22.9 µM)

IC50 (A549 [26]): 7.5 µg/mL (≈ 13.9 µM)
Compound: Nn1c(Cc2ccc(Cl)cc2)nn(CC(=O)NNC(=O)c2cc3cc(Cl)cc(Cl)c3oc2=O)c1=O

IC50 (BT-20): 6.4 µg/mL (≈ 11 µM)
Compound: Nn1c(Cc2ccccc2Br)nn(CC(=O)NNC(=O)c2cc3cc(Cl)cc(Cl)c3oc2=O)c1=O

Second part, the compound before the results:

Compound: COc1ccc(-c2cc(-c3cc4ccccc4oc3=O)nc(Cc3ccc(F)cc3)n2)cc1
pIC50 (MCF7 [6]): 5.65

Compound: Cc1c(Cc2ccc(NC(=O)Nc3ccc(Br)cc3)nc2)c(=O)oc2cc(O)c(C(C)(C)C)cc12
pIC50 (MCF7 [7]): 5.59

Compound: COc1ccc(-n2nc(C)n(-n3c(-c4cc5ccccc5oc4=O)cs/c3=N\c3ccc(Cl)cc3)c2=O)cc1
pIC50 (HeLa [9]): 6.60 | pIC50 (MDA-MB-231 [10]): 6.80 | pIC50 (MDA-MB-231 [11]): 6.80 | pIC50 (K562 [12]): 6.51 | pIC50 (A549 [13]): 6.77

Compound: CCOC(=O)c1sc(N/N=C(\C)c2cc3ccccc3oc2=O)nc1C
fold change (FC) [14]: 2.3

Compound: Cc1c(Cc2ccc(NC(=O)Nc3ccccc3Cl)nc2)c(=O)oc2cc(O)c(C(C)(C)C)cc12
pIC50 (A549 [15]): 5.36

Compound: Cc1c(Cc2ccc(NC(=O)Nc3cccc(Cl)c3)nc2)c(=O)oc2cc(O)c(C(C)(C)C)cc12
pIC50 (HeLa [20]): 5.66

Compound: COc1ccc2oc(=O)c(/C=C3\SC(=O)N(C(=O)c4ccc(Cl)cc4)C3=O)cc2c1
pIC50 (HeLa [21]): 6.02 | pIC50 (A549 [22]): 6.02 | pIC50 (MCF7 [23]): 6.02

Compound: CN(C)c1ccc2c(c1)O/C(=C(/C#N)c1cc[n+](C)cn1)C=C2C(F)(F)F
pIC50 (HeLa [24]): 5.96

— ChEMBL document CHEMBL5357036, “Latest developments in coumarin-based anticancer agents: mechanism of action and structure-activity relationship studies” (RSC Med Chem, 2024)
